We go through 6 molecules from patent publication US20250082630A1, “METHODS OF TREATING BRAIN TUMOURS AND NEUROBLASTOMAS” (AstraZeneca AB, priority 2021, published 2025).

One data set concerns the target PARP3 (Homo sapiens (Human), UniProt Q9Y6F1). Put plainly: PARP fluorescence anisotropy binding assay, PARP3. A general note: Polarisation of emitted light reports the rotation of a fluorescent probe.
For the next data set, the target named is PARP6 (Homo sapiens (Human), UniProt Q2NL67). Put plainly: PARP fluorescence anisotropy binding assay, PARP6. The procedure: Recombinant full length GST tagged PARP6 protein was diluted to 160 nM with 50 mM Tris pH 8, 0.001% Triton X100, 10 mM MgCl2, 150 mM NaCl and incubated for four hours with an equivalent volume of 6 nM fluorescent probe diluted with 50 mM Tris pH 8, 0.001% Triton X100, 10 mM MgCI2, 150 mM NaCl. The final DMSO concentration of the probe was kept below 1% (v/v).
PARP6, sequence (Q2NL67 whole entry): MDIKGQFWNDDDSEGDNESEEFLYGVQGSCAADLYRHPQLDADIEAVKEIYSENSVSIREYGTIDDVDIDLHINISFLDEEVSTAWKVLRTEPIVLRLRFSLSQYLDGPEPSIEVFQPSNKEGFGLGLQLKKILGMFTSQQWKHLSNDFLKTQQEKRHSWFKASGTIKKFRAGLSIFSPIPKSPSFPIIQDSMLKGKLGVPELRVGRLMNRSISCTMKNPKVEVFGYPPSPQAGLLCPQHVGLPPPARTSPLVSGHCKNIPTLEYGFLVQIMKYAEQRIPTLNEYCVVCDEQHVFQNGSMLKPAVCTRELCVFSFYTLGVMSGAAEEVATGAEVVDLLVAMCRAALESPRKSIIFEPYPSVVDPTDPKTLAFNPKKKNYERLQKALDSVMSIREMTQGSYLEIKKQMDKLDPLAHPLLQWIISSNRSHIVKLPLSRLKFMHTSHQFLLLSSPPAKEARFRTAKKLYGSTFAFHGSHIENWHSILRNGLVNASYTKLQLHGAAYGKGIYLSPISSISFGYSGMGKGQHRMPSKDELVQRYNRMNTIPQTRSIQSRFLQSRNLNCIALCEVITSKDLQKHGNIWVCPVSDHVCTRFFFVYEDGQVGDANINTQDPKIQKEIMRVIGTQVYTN
Fluorescence anisotropy of the probe when bound to the proteins was measured using a BMG Pherastar FSX® in the presence of test compounds or solvent control and the effect on anisotropy determined. % inhibition values for different test compound concentrations were calculated and fitted to a four parameter logistic plot in order to determine the IC50 value. Where necessary, the compound K, can be determined from the IC50 value using a Munson Rodbard equation defined in Anal Biochem. 1980 Sep. 1; 107(1):220-39 and is based on the known KD of the probe binding to the relevant PARP protein

The next data set has as its system BRCA2 (−/−) DLD1 cells. Put plainly: PARP proliferation assay (7 day compound dosing), BRCA2 (−/−) DLD1. The format is cell-based. Conditions: read-out: BRCA2 −/− DLD-1 prolif. 7 d IC50. The procedure:
(§1) DLD1 and BRCA2 (−/−) DLD1 cells were harvested to a density of 5000 cells/ml and 2.5E4 cells/ml respectively in complete media, 40 μL/well seeded into 384-well plates (Greiner, Kremsmunster, Austria; 781090) using a Multidrop Combi then incubated at 37° C., 5% CO2 overnight. Next day (Day 1) using a Multidrop Combi add sytox green (5ul, 2 uM) and saponin (10 ul, 0.25% stock) to a day 0 plate, seal the plate using a black adhesive lid and incubate for >3 h at it. Cells were imaged using Cell Insight (Thermo Fisher) fitted with a 4x objective. Test compounds are added using an Echo 555 and placed in incubator maintained at 37° C., 5% CO2 and incubated for 7 days. On Day 8 add sytox green (5ul, 2 uM) and then saponin (10 ul, 0.25% stock) to plates, seal the plate using a black adhesive lid and incubate for >3 h at it. Read all cells on the Cell Insight with 4× Objective. The rate of proliferation is determined in Genedata by assessing the total cell number output from the Cell Insight for Day 0 and Day 8 plates.

The target of data set [1] is T1, hERG (Homo sapiens (Human), UniProt Q12809). Put plainly: hERG IC50.
T1 sequence (Q12809 whole entry): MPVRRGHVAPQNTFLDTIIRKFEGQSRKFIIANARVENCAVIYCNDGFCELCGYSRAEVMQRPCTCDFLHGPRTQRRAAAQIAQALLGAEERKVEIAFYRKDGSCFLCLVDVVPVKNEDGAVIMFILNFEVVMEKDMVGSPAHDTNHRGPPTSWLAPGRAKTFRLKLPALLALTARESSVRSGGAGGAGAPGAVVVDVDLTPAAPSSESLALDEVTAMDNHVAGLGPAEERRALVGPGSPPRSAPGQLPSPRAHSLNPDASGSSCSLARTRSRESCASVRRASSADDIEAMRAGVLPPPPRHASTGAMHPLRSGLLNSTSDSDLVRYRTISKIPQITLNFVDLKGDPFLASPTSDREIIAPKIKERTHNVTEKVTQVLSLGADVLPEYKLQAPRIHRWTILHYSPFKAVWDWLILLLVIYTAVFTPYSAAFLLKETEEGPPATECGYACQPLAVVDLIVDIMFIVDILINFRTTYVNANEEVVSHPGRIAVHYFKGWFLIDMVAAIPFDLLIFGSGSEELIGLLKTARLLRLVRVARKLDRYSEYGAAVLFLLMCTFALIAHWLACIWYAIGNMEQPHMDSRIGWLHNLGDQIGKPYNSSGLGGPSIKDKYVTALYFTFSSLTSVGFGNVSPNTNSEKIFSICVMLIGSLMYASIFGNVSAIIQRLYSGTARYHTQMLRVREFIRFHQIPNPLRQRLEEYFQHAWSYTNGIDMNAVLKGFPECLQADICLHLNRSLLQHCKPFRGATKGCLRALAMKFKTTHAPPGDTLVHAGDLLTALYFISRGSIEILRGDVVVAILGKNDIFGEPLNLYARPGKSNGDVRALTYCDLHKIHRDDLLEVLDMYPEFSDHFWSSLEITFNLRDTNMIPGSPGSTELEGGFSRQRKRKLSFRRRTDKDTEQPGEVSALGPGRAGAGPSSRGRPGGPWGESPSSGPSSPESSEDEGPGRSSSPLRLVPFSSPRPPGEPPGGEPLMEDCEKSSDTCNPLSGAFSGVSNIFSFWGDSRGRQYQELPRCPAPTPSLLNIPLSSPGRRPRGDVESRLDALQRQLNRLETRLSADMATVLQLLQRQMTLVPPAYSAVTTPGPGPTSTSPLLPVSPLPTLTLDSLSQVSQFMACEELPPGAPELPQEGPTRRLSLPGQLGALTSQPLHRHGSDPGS
A further data set concerns the target PARP1 (Homo sapiens (Human), UniProt P09874). The data set can be described thus: PARP fluorescence anisotropy binding assay, PARP1.
For data set [2], the system named is MDCKII cells expressing MDR1 and BCRP. The data set can be described thus: In vitro human transporter efflux (MDCK-MDR1-BCRP). Conditions: Papp(B to A)/Papp(A to B), 90-min incubation.
Protocol: (§2) MDCKII cells expressing MDR1 and BCRP were seeded onto polyethylene membranes in 96-well Transwell insert systems at a density to form a confluent cell monolayer. […] The final percent volume of the organic solvent was less than 1%. Permeation of the test compounds from A to B direction and from B to A direction was determined over a 90-min incubation at 37° C. and 5% CO2 with a relative humidity of 95%. At the end of the incubation, samples from the apical and basolateral side were taken and then precipitated with cold acetonitrile containing internal standard. After centrifugation at 4000 rpm, the supernatant was diluted with 0.1% formic acid aqueous solution and quantified by LC-MS/MS. The integrity of the cell monolayers was confirmed by using the marker Lucifer yellow.
(§3) The permeability coefficient (1×10-6 cm/s) was calculated using the following equation
(§4) (1) The Efflux Ratio was Calculated Using the Following Equation
Efflux ratio=Papp(B to A)/Papp(A to B)
(§5) (2) where dCr/dt is the cumulative concentration of the compound in the receiver chamber as a function of time (in μM/s); Vr is the solution volume in the receiver chamber (0.1 ml on the apical side and 0.3 ml on the basolateral side); A is the surface area for the transport, that is, 0.11 cm2 for the area of the monolayer; and C0 is the initial concentration in the donor chamber (in μM).
The next data set concerns the target PARP5a (Homo sapiens (Human), UniProt O95271). The data set can be described thus: PARP fluorescence anisotropy binding assay, PARP5a.
A further data set concerns DLD1 cells. Put plainly: PARP proliferation assay (7 day compound dosing), WT DLD1. The format is cell-based. The settings on record: read-out: WT DLD-1 prolif. 7 d IC50. The procedure: as §1
The test system of data set [3] is MDCKII cells expressing MDR1 and BCRP.
Protocol: as §2, §3, §4
Efflux ratio=Papp(B to A)/Papp(A to B)
as §5
Data set [4] concerns the target T1, hERG.
The next data set addresses PARP2 (Homo sapiens (Human), UniProt Q9UGN5). The data set can be described thus: PARP fluorescence anisotropy binding assay, PARP2. An outline of the steps: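 Recombinant full-length human PARP2 (6 nM before mixing) incubated 4 h with equal volume of 2 nM fluorescent probe in 50 mM Tris pH 8, 10 mM MgCl2, 150 mM NaCl, 0.001% Triton X100. Compound displacement measured as change in probe fluorescence anisotropy; IC50 from four-parameter logistic fit.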

For data set [5] the following is noted: 30 mg/m^2 per day, days 1, 2 and 3 every 21 days, in combination with radiation therapy; cited from earlier work.

pIC50: −log10 of the molar value. Like-named read-outs stand apart in the source and are kept apart here.

PARP2, sequence (Q9UGN5 whole entry): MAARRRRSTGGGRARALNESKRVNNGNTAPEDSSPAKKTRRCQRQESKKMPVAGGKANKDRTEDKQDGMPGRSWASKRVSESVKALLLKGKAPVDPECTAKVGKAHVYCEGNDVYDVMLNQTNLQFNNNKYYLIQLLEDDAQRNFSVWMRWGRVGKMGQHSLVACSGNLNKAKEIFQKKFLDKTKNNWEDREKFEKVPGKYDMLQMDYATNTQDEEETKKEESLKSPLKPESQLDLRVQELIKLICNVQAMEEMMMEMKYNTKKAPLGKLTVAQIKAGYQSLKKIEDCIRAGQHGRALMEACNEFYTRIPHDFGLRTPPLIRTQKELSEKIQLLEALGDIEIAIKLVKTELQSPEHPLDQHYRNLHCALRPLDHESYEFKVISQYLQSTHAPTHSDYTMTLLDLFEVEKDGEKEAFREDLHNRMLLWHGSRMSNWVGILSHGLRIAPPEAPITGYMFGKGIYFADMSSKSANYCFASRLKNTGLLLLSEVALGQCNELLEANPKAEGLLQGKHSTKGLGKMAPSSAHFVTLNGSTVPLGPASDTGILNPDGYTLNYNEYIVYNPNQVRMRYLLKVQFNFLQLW
PARP1, sequence (P09874 whole entry): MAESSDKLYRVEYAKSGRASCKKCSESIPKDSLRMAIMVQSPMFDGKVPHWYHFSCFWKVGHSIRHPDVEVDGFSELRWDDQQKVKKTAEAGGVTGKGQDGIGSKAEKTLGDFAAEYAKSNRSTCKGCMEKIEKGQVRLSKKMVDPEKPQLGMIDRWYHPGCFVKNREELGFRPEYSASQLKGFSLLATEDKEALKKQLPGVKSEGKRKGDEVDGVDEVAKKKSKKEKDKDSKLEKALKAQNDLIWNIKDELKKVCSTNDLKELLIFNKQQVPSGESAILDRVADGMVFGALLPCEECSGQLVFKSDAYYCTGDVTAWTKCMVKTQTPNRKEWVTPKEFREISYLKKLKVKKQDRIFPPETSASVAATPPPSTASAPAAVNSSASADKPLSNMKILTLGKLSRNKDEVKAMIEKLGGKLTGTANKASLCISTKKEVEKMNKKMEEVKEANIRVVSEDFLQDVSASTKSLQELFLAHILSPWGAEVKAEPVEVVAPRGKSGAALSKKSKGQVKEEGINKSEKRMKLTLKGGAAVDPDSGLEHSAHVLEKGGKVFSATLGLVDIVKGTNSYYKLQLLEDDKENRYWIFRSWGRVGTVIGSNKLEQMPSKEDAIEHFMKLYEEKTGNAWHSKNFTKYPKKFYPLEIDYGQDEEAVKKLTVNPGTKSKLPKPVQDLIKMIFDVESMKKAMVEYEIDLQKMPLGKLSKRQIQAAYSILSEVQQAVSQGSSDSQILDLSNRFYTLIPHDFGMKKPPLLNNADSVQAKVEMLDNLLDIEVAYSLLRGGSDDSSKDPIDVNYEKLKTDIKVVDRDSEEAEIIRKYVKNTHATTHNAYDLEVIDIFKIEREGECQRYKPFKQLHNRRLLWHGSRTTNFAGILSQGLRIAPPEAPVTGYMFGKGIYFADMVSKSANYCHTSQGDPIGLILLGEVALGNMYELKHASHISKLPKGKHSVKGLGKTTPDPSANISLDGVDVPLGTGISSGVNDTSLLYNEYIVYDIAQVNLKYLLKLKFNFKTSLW
PARP3, sequence (Q9Y6F1 whole entry): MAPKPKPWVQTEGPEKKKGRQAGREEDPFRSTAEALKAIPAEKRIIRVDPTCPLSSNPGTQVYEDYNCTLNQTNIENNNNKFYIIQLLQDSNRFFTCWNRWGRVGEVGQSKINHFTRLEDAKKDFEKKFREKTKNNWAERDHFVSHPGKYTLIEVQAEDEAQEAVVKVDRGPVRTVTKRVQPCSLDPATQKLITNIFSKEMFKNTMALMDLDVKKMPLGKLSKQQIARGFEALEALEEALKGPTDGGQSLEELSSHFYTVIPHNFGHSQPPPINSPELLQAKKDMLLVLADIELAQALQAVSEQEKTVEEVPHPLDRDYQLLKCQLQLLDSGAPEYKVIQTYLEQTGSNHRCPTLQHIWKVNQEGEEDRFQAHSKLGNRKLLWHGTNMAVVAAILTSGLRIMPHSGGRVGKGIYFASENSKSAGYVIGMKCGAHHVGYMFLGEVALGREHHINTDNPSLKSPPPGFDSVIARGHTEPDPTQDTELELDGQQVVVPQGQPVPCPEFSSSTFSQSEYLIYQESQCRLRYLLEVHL
PARP5a, sequence (O95271 1112-1317): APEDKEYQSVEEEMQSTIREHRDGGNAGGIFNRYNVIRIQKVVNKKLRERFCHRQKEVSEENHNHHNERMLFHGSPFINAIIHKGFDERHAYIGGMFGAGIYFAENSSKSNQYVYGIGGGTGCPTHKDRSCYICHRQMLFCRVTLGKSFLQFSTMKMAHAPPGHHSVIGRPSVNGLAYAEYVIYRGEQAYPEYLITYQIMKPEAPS
Protocol for PARP1: Recombinant full length 6HIS tagged PARP1 protein was diluted to 6 nM with 50 mM Tris pH 8, 0.001% Triton X100, 10 mM MgCl2, 150 mM NaCl and incubated for four hours with an equivalent volume of 2 nM fluorescent probe diluted with 50 mM Tris pH 8, 0.001% Triton X100, 10 mM MgCl2, 150 mM NaCl. The final DMSO concentration of the probe was kept below 1% (v/v).
Protocol for PARP3: Recombinant full length PARP3 protein was diluted to 100 nM with 50 mM Tris pH 8, 0.001% Triton X100, 10 mM MgCl2, 150 mM NaCl and incubated for four hours with an equivalent volume of 6 nM fluorescent probe diluted with 50 mM Tris pH 8, 0.001% Triton X100, 10 mM MgCl2, 150 mM NaCl. The final DMSO concentration of the probe was kept below 1% (v/v).
Protocol for PARP5a: Recombinant PARP5a binding domain was diluted to 160 nM with 50 mM Tris pH 8, 0.001% Triton X100, 10 mM MgCl2, 150 mM NaCl and incubated for four hours with an equivalent volume of 6 nM fluorescent probe diluted with 50 mM Tris pH 8, 0.001% Triton X100, 10 mM MgCl2, 150 mM NaCl. The final DMSO concentration of the probe was kept below 1% (v/v).

As to `CNC(=O)c1ccc(N2CCN(Cc3ccc4nc([C@H](C)F)c(=O)[nH]c4c3F)CC2)c(F)n1` (single isomer, unassigned) [Example 12, 6-fluoro-5-[4-[[5-fluoro-2-[(1S OR 1R)-1-fluoroethyl]-3-oxo-4H-quinoxalin-6-yl]methyl]piperazin-1-yl]-N-methyl-pyridine-2-carboxamide], the pIC50 on PARP3 was 4.07; at PARP6 it was less than 4.00; with BRCA2 (−/−) DLD1 cells, 8.10; at hERG [1] (read-out: hERG IC50) it was less than 4.40; at PARP1 it was 7.82; on PARP5a it was less than 4.00. Besides, the “MDCK-MDR1-BCRP Efflux Ratio” value in data set [2] was determined as 4.2.

Take `CNC(=O)c1ccc(N2CCN(Cc3ccc4nc([C@H](C)F)c(=O)[nH]c4c3F)CC2)c(F)n1` (single isomer, unassigned) [Example 13, 6-fluoro-5-[4-[[5-fluoro-2-[(1S OR 1R)-1-fluoroethyl]-3-oxo-4H-quinoxalin-6-yl]methyl]piperazin-1-yl]-N-methyl-pyridine-2-carboxamide]: the pIC50 at PARP3 was 4.21; in the data set on DLD1 cells it was 4.66; on PARP6, less than 4.00; in the data set with BRCA2 (−/−) DLD1 cells, 7.72; on PARP1, 8.05; against hERG [4], less than 4.40. The pIC50 on PARP2 and on PARP5a was less than 4.00 each time. In addition, the “MDCK-MDR1-BCRP Efflux Ratio” value in data set [3] is 3.0.

For `CNC(=O)c1ccc(N2CCN(Cc3ccc4nc(C(C)F)c(=O)[nH]c4c3F)CC2)c(C)n1` (single isomer, unassigned) [Example 14, 5-[4-[[5-fluoro-2-[(1S OR 1R)-1-fluoroethyl]-3-oxo-4H-quinoxalin-6-yl]methyl]piperazin-1-yl]-N,6-dimethyl-pyridine-2-carboxamide], the pIC50 on PARP3 is 4.28; at PARP6, less than 4.00; in the data set with BRCA2 (−/−) DLD1 cells it was 7.82; at hERG [1] (read-out: hERG IC50) it was less than 4.40; at PARP1, 7.89; at PARP2, less than 4.08. This molecule gave a pIC50 at PARP5a of less than 4.00. Further, the “MDCK-MDR1-BCRP Efflux Ratio” value in data set [2] worked out at 3.7.

For `CNC(=O)c1ccc(N2CCN(Cc3ccc4nc(C(C)F)c(=O)[nH]c4c3F)CC2)c(C)n1` (single isomer, unassigned) [Example 15, 5-[4-[[5-fluoro-2-[(1S OR 1R)-1-fluoroethyl]-3-oxo-4H-quinoxalin-6-yl]methyl]piperazin-1-yl]-N,6-dimethyl-pyridine-2-carboxamide], the pIC50 at PARP3 is 4.37; at PARP6 it was less than 4.00; with BRCA2 (−/−) DLD1 cells, 7.85; at hERG [1] (read-out: hERG IC50), less than 4.42; at PARP1, 7.92; at PARP2, less than 4.00. Further, at PARP5a, the pIC50 was less than 4.00. The “MDCK-MDR1-BCRP Efflux Ratio” value in data set [2] is on record as 3.7.

Turning to `CNC(=O)c1ccc(N2CCN(Cc3ccc4ncc(=O)[nH]c4c3F)CC2)c(Cl)n1` [Example 34, 6-chloro-5-[4-[(5-fluoro-3-oxo-4H-quinoxalin-6-yl)methyl]piperazin-1-yl]-N-methyl-pyridine-2-carboxamide], the pIC50 was 4.54 at hERG [1], 7.59 at PARP1 and less than 4.00 at PARP2.

In the case of `O[C@H]([C@H](O)[C@@H]1CO1)[C@H]1CO1` [VAL-083, dianhydrogalactitol], in [5], the safety and tolerability result was “generally safe and well tolerated”.
